Experimental data from patent publication US20250161338A1, “Compounds for Anti-aging Intervention” (AGENCY FOR SCIENCE, TECHNOLOGY AND RESEARCH, priority 2022, published 2025).
Entries after “also recorded” stand apart in the source; their conditions may differ.

Key:
[1] = tested on: CEN.PK113-7D snflΔ deletion strain; experiment: Growth sensitivity of SNFl gene deletion strain; assay type: cell-based, Saccharomyces cerevisiae; settings: different concentrations; compared to wild-type strain
Source text: The prototrophic wild-type Saccharomyces cerevisiae CEN.PK113-7D yeast strain genetic background (Euroscarf, Köhlerweg, Oberursel, Germany), and the Saccharomyces cerevisiae BY4743 strain (Euroscarf, Köhlerweg, Oberursel, Germany) were used. The CEN.PK113-7D snflΔ deletion strain was constructed. The standard rich Yeast-Extract Peptone Dextrose (YPD) medium (1% w/v Bacto yeast extract, 2% w/v Bacto peptone, and 2% w/v glucose) (BD, Franklin Lakes, New Jersey, United States of America), YPD agar (2.5% w/v Bacto agar) (BD, Franklin Lakes, New Jersey, United States of America), and synthetic defined (SD) medium (BD, Franklin Lakes, New Jersey, United States of America) used here contained 6.7 g/L Difco™ Yeast Nitrogen Base (without amino acids and with ammonium sulfate) (BD, Franklin Lakes, New Jersey, United States) and 2% w/v glucose. Rapamycin (Enzo Life Sciences, Farmingdale, New York, United States) stock solution was prepared in dimethyl sulfoxide (DMSO) (Sigma-Aldrich, St. Louis, Missouri, United States of America). […]

[2] = tested on: wild-type Saccharomyces cerevisiae CEN.PK113-7D yeast strain; experiment: Yeast cell growth (OD600) in SD medium; assay type: cell-based; settings: 0 to 8 mM; 24, 48 and 72 hours
Protocol: Yeast strain was recovered from frozen glycerol stock at 30° C. on YPD agar medium. Yeast was left to propagate in SD medium overnight at 30° C. with shaking at 220 revolutions per minute (rpm). Cells propagated overnight were diluted to a starting optical density at 600 nm (OD600) of approximately 0.2 in fresh SD medium to begin the chronological lifespan (CLS) experiments.
CLS experiments were performed in 96-well plates with 200 μL yeast culture. Cellular inoculums were transferred into 96-well plates containing serially double-diluted concentrations (0 to 10 nM) of rapamycin. Cellular inoculum was transferred into 96-well plates containing serially double-diluted concentrations (0 to 8 mM) of 2,5-anhydro-D-mannitol, D-fructose, D-mannitol, D-maltose, and D-sorbitol in SD medium. Cells were incubated at 30° C., and the growth was measured at different time points. The growth time point 72 hours was considered as Day 1 for the CLS assay. Cell survival was quantified at various age time points by three different approaches: (i) PI fluorescence-based method, (ii) outgrowth in YPD liquid medium, and (iii) spotting assay (FIG. 1).
Firstly, the effect of 2,5-AM on cell growth was determined. Yeast cells were incubated with varying concentrations of 2,5-AM in the SD medium. Cell growth was measured at different time points (24 hours, 48 hours, and 72 hours). […] Then, the survival of chronologically aged cells supplemented with different concentrations of 2,5-AM was measured using the PI fluorescence method. At each chronological age point, a 3 μL culture was transferred to a second 96-well plate containing 200 μL YPD medium. The 72-hour growth culture was considered Day 1 for the CLS analysis. The viability fraction was calculated, and a survival graph was plotted for different chronological age time points (FIG. 5). […] The survival of aged cells supplemented with 2,5-AM (4 mM and 8 mM) on Day 4 was approximately 80%. However, the survival of aged cells without 2,5-AM was approximately 50%. On Day 7, survival of 2,5-AM supplemented aged cells was approximately 75%. However, the survival of aged cells without 2,5-AM was reduced to less than 20%.
Firstly, the effect of fructose, mannitol, maltose, and sorbitol on cell growth was tested. Yeast cells were incubated with various concentrations of fructose, mannitol, maltose, and sorbitol similar to 2,5-AM in the SD medium. […] Next, the survival of chronologically aged cells on day 1, day 7, day 14, and day 21 was measured. […] Aged cells supplemented with 2,5-AM (8 mM) survived (approximately 65%) on Day 21. However, the survival of aged cells without 2,5-AM supplementation was less than 10%.

HEK293 cell line = experiment: CLS in human cells using crystal violet outgrowth assay; assay type: cell-based; settings: Day 4 culture (FIG. 18A); seven days of outgrowth
Protocol: Human embryonic kidney 293 (HEK293) cells (ATCC, Manassas, Virginia, United States of America), lung epithelial (A549) cells (ATCC, Manassas, Virginia, United States of America) and fibroblast (IMR90) cells (ATCC, Manassas, Virginia, United States of America) were cultured in the standard D10 medium, consisting of high-glucose DMEM (HyClone, Cytiva, Marlborough, Massachusetts, USA) supplemented with 10% Fetal Bovine Serum (FBS) (Gibco™, ThermoFisher Scientific, Waltham, Massachusetts, USA) and 1% Penicillin Streptomycin Solution (Gibco™, ThermoFisher Scientific, Waltham, Massachusetts, USA). All cells were cultured in a humidified incubator with 5% CO2 at 37° C.
80,000 cells were seeded in a 96-well culture plate with or without compound treatment. On Day 4, Day 6, and Day 8 after seeding, floating dead cells were aspirated with exhausted D10 medium. Then, attached cells were gently washed with 1×PBS to remove D10 medium residue and treated with 0.2 mL of 0.25% trypsin. Cells were gently mixed by pipetting and a 2% aliquot (4 μL) was transferred to 6-well experiment plates with fresh D10 medium. […]
In this approach, an outgrowth assay was used to determine the number of live cells in the 6-well experiment plate using crystal violet staining. […] These live cells were then stained with crystal violet dye and assessed qualitatively.

Compound: OC[C@H]1O[C@H](CO)[C@@H](O)[C@@H]1O [2,5-AM, 2,5-anhydro-D-mannitol]
- growth of snflΔ deletion strain [1]: inhibited the growth of snflΔ deletion strain compared to wild-type strain
- cell growth [2]: reached the same saturation level after 24 hours; also recorded: did not affect cell growth
- cellular lifespan (crystal violet, qualitative) (HEK293 cell line): able to increase cellular lifespan
